pKd: −log10 of the molar value. Like-named read-outs stand apart in the source and are kept apart here. Numbered stars: 1 amine (or outer) side, 2 acyl side, 3 side chain; on linkers, the order of the positions; unused ones are H or OH. Bridge positions count the residues as written; N and C are the ends. Ends that are not written are not given here. Peptide text beside a SMILES is read from it. X2 = CN(CC(=O)O)c1nc(CC[*:1])nc(CC[*:2])n1; X1 = Nc1nc(CC[*:1])cc(CC[*:2])n1
What was measured:
[1] = target: monomeric version of RAD51 (HumRadA22) (Pyrococcus furiosus, UniProt O74036); experiment: Fluorescence polarisation (FP) competition assay: displacement of fluorescein-labelled BRC4 repeat; assay type: binding, archaeal RadA mutant with human Rad51 surface residues; conditions: 100 nM HumRadA22, 10 nM BRC4-fluorescein, KD calculated from IC50, single titration, three technical replicates per point
Description: We prepared all stapled peptides from small-scale bacterial cultures as GB1/C-His8 fusions and cyclised them with the DVT linker. For peptides SP10, SP11, SP12 and SP15, correct stapling was confirmed by MS, showing a similar composition to SP2 (Fig. S15–S18 ^†). Thus, we confirm that the pseudo-dilution approach is robust in yielding almost exclusively the cyclised product, irrespective of whether a helical or non-helical motif is being constrained. To examine the effect of introducing a covalent staple on affinity, a mock reaction was done in parallel for each peptide by splitting the IMAC elution into two halves and adding DMSO to the mock control instead of the linker. TCEP (500 μM) was included in the mock reaction to maintain the peptide in linear form by preventing disulfide formation. The peptides were tested in a fluorescence polarisation (FP) assay monitoring the displacement of a fluorescently-labelled BRC4 repeat from a monomeric version of RAD51 (HumRadA22), as reported previously.[25] […]
Fluorescence polarisation competition assay
FP competition assay was a modified version of a protocol described previously. Fluorescein-labelled HsBRC4 probe for this assay was kindly provided by Dr Laurens Lindenburg (Hollfelder group, Department of Biochemistry, University of Cambridge). Black 384-well flat-bottom microplates (Corning, 3821) were used with a 40 μl final reaction volume in all measurements. Following buffer conditions were used: 20 mM CHES pH 9.5, 150 mM NaCl, 0.1% BSA, 0.1% Tween-20. Each reaction contained 100 nM HumRadA22 and 10 nM BRC4-fluorescein. Two-fold serial dilutions of stapled peptides were added to the reactions. A free probe control reaction containing only 10 nM BRC4-fluorescein was used to calibrate gain and focal height. FP measurements were performed on Pherastar FX or Clariostar Plus (BMG Labtech) plate readers equipped with an FP 485-520-520 optic modules. Binding curves were fitted using the four-parameter logistic model with a variable Hill slope using Prism software (Graphpad). Regression fitting was performed using the least squares optimisation algorithm.
KD values were estimated from the fitted IC 50 parameters using a previously reported

[2] = target: HumRadA22 (Pyrococcus furiosus, UniProt O74036); experiment: Isothermal titration calorimetry (ITC) of peptide binding; design: species or system archaeal RadA mutant with human Rad51 surface residues; conditions: read-out: ITC KD; free peptides; 20 mM CHES pH 9.5, 150 mM NaCl, 0.1% Tween-20; 25°C; single-site binding model
Protocol: We then evaluated the binding of free peptides to HumRadA22 using FP competition assay and isothermal titration calorimetry (Table 1 and Fig. 3B and C). […] All three peptides SP2, SP24 and SP30 bound with similar low-nanomolar affinities in ITC, and the binding appears to be slightly weaker relative to the linear BRC8-2 template (Fig. 3C).
(§1) Isothermal titration calorimetry
(§2) Peptides were resuspended in MilliQ water to 10 times the desired final concentration.
This was then diluted 10x with the ITC buffer to obtain the final titrant solution (20 mM CHES pH 9.5, 150 mM NaCl, 0.1% Tween-20). HumRadA22 was buffer-exchanged on a NAP-5 desalting column (Cytiva) into ITC buffer and protein concentration was adjusted to 10:9 of the desired final value. […]
(§3) Dried peptides were dissolved in MilliQ water to 0.3 mg/ml, and then two-fold diluted in 20 mM sodium phosphate, pH 7.4, giving a final solution of 0.15 mg/ml peptide in 10 mM sodium phosphate. CD spectra of selected peptides were recorded on an AVIV 410 circular dichroism spectropolarimeter using a 1 mm path length quartz cuvette. […]
(§4) The ability of linear and stapled BRC repeat peptides to dissociate RAD51-ssDNA nucleofilament was evaluated using an electrophoretic mobility shift assay (EMSA). […]

[3] = test system: RAD51:dT60 nucleoprotein filament (full-length human RAD51); experiment: Electrophoretic mobility shift assay (EMSA) of nucleoprotein filament disruption; assay type: biochemical; conditions: 5 μM full-length human RAD51, 100 nM FAM-dT60, varying peptide concentrations; 50 mM HEPES pH 7.4, 1 mM ATP
Protocol: We evaluated the effect of stapled peptides SP2, SP24 and SP30 on the nucleoprotein filament using electrophoretic mobility shift assay (EMSA, Fig. 3D). A fluorescently labelled dT60 oligonucleotide was incubated with full-length RAD51, after which the peptides were added at different concentrations before separating the products on a polyacrylamide gel.
as §1, §2
This was then diluted 10x with the ITC buffer to obtain the final titrant solution (20 mM CHES pH 9.5, 150 mM NaCl, 0.1% Tween-20). HumRadA22 was buffer-exchanged on a NAP-5 desalting column (Cytiva) into ITC buffer and protein concentration was adjusted to 10:9 of the desired final value. One ninth volume of MilliQ water was added to the solution to bring the protein concentration to the desired final value, while maintaining identical buffer:MilliQ volume proportions in both the syringe and the cell. ITC was carried out using a Microcal ITC200 or Malvern PEAQ ITC instruments at 25°C with a 5.00 μCal reference power DP value, stirring speed of 500-750 rpm, 2 sec filter period. Injection spacing, speed and volume, cell/syringe concentrations as well as the number of injections were adjusted for each peptide and its binding properties. ITC data were fitted using a single-site binding model using the Microcal ITC data analysis program in the Origin 7.0 package. Data points affected by baseline spikes were omitted from the analysis.
Circular dichroism spectroscopy
as §3, §4

[4] = stapled product (linker DVT or DVP as in Table 1), 20 mM CHES pH 9.5, 150 mM NaCl, 0.1% BSA, 0.1% Tween-20, read-out: FP competition KD, nM, Stapled
[5] = unstapled linear form, mock reaction with DMSO instead of linker plus TCEP, 20 mM CHES pH 9.5, read-out: FP competition KD, nM, Unstapled

Compound | Kd [1, 4] [nM] | Kd [1, 5] [nM] | Kd ([1]; read-out: FP competition KD, nM, Stapled, stapled product (linker DVT or DVP as in Table 1), 20 mM CHES pH 9.5, 150 mM NaCl, 0.1% BSA, 0.1% Tween-20) [nM] | pKd [2] | Depolymerisation of RAD51 from single-stranded DNA (EMSA) [3]
ACSGFSTASGKKLNCS (also: sidechain bridge or staple (positions not given here)) [GB1-SP16, GB1/C-His8 fusion peptide stapled with DVT; unstapled column is its linear mock control] | > 500 | > 500 | – | – | –
VNCSAFSGFSTASGKKLCVS (also: sidechain bridge or staple (positions not given here)) [GB1-SP14, GB1/C-His8 fusion peptide stapled with DVT; unstapled column is its linear mock control] | > 500 | > 500 | – | – | –
SSACSGFSTASGKKLNVSTEACQKAVKLFSDIENIS (also: sidechain bridge or staple (positions not given here)) [GB1-SP12, GB1/C-His8 fusion peptide stapled with DVT; unstapled column is its linear mock control] | 14 | 50 | – | – | –
VNSSAFSGFSTASGKKLNVSTCALQKAVCLFSDIENIS (also: sidechain bridge or staple (positions not given here)) [GB1-SP8, GB1/C-His8 fusion peptide stapled with DVT; unstapled column is its linear mock control] | 29 | 45 | – | – | –
ACGFSTASGKKLNVSCEALQKAVKLFSDIENIS (also: sidechain bridge or staple (positions not given here)) [GB1-SP10, GB1/C-His8 fusion peptide stapled with DVT; unstapled column is its linear mock control] | 27 | 35 | – | – | –
VNSSAFSGFCTASGKKLNVSCEALQKAVKLFSDIENIS (also: sidechain bridge or staple (positions not given here)) [GB1-SP7, negative control GB1/C-His8 fusion peptide stapled with DVT; unstapled column is its linear mock control] | – | 39 | – | – | –
CC(C)C[C@@H]1NC(=O)[C@H](C)NC(=O)[C@H](CCC(N)=O)NC(=O)[C@@H](NC(=O)[C@H](CO)NC(=O)[C@@H](NC(=O)[C@H](CC(N)=O)NC(=O)[C@H](CC(C)C)NC(=O)[C@H](CCCCN)NC(=O)[C@H](CCCCN)NC(=O)CNC(=O)[C@H](CO)NC(=O)[C@H](C)NC(=O)[C@@H](NC(=O)[C@H](CO)NC(=O)[C@H](Cc2ccccc2)NC(=O)CNC(=O)[C@H](CO)NC(=O)CN)[C@@H](C)O)C(C)C)CSCCc2cc(nc(N)n2)CCSC[C@@H](C(=O)N[C@@H](CCCCN)C(=O)N[C@@H](CC(C)C)C(=O)N[C@@H](Cc2ccccc2)C(=O)N[C@@H](CO)C(=O)NCC(=O)O)NC(=O)[C@H](C)NC(=O)[C@H](CCCCN)NC(=O)[C@H](CCC(N)=O)NC1=O [SP24] (H-GSGFSTASGKKLNVSCQALQKACKLFSG-OH; linker 16-23 via X1) | – | – | 13 | 7.68 | depolymerise RAD51 from single-stranded DNA to similar extent
H-GSVNSSAFSGFSTASGKKLNVSCEALQKACKLFSDIENISGSS-OH (linker 23-30 via X2) [SP2] | – | – | – | – | depolymerise RAD51 from single-stranded DNA to similar extent
SCEALQKACKLFSDIENIS (also: sidechain bridge or staple (positions not given here)) [GB1-SP1, GB1/C-His8 fusion peptide stapled with DVT; unstapled column is its linear mock control] | > 500 | > 500 | – | – | –
VNSSAFSGFSTASGKKLNVSCEALQKACKLFSDIECIS (also: sidechain bridge or staple (positions not given here)) [GB1-SP15, GB1/C-His8 fusion peptide stapled with DVT; unstapled column is its linear mock control] | 13 | 15 | – | – | –
VNSSAFSGFSTASGKKLNVSTEALCKAVKLFCDIENIS (also: sidechain bridge or staple (positions not given here)) [GB1-SP9, GB1/C-His8 fusion peptide stapled with DVT; unstapled column is its linear mock control] | 51 | 57 | – | – | –
VNSSAFSGFSTASGKKLNVSCEALQKACKLFSDIENIS (also: sidechain bridge or staple (positions not given here)) [GB1-SP2, GB1/C-His8 fusion peptide stapled with DVT; unstapled column is its linear mock control] | 15 | 6 | – | – | –
VNSSAFSGFSTASGKKLNVSTEALQKAVKLFSDIENIS [GB1-BRC8-2, linear BRC8-2 template as GB1/C-His8 fusion] | – | 11 | – | – | –
SCFSTASGKKLNVSCEALQKAVKLFSDIENIS (also: sidechain bridge or staple (positions not given here)) [GB1-SP11, GB1/C-His8 fusion peptide stapled with DVT; unstapled column is its linear mock control] | 36 | 29 | – | – | –
VNCSAFSGFSTASGKKLNVSTEALCKAVKLFSDIENIS (also: sidechain bridge or staple (positions not given here)) [GB1-SP13, GB1/C-His8 fusion peptide stapled with DVT; unstapled column is its linear mock control] | 28 | 21 | – | – | –

— PMC10699557, “A recombinant approach for stapled peptide discovery yields inhibitors of the RAD51 recombinase” (Chemical Science, 2023)
